Earlier results, collected in US20190249218A1, “Method, Medium and Kit for Detecting Multiple Aminoglycoside Resistance Including 16S rRNA Methylase Mediated Resistance in Gram-Negative Bacteria” (priority 2016, published 2019).

How the values were obtained:
[1] = system: aminoglycoside modifying enzymes such as the nucleotidyl, acetyl and phosphoryl enzymes; conditions: reference (12); cited from earlier work
[2] = system: 16S rRNA methylase producers; conditions: reference (13); cited from earlier work

CN[C@@H]1[C@@H](O)[C@@H](O[C@@H]2[C@@H](O)[C@H](O[C@H]3OC(CNCCO)=CC[C@H]3N)[C@@H](N)C[C@H]2NC(=O)[C@@H](O)CCN)OC[C@]1(C)O [Plazomicin]
activity against aminoglycoside modifying enzymes [1]: active
activity against 16S rRNA methylase producers [2]: inactive
